# Reference: ChEMBL document CHEMBL1201862, “PubChem BioAssay data set” (2004)
# The source made the active and inactive calls.
# How the values were obtained:
# [1] = Luminescence Cell-Based Dose Response HTS to Identify Activators of Luciferase Translation or Activity in H4 […] Cells. [Related pubchem assays: 1829 (Project Summary), 1814 (Primary HTS)]; format: functional
# [2] = Luminescence Cell-Based Dose Confirmation HTS to Identify Activators of 5'UTR Stem-Loop Driven Alpha-Synuclein mRNA Translation in H4 Neuroglioblastoma Cells. [Related pubchem assays: 1829 (Project Summary), 1814 (Primary HTS)]; format: functional
# H4 = assay: Luminescence Cell-Based Dose Response HTS to Identify Activators of 5'UTR Stem-Loop Driven Prion Protein mRNA Translation in H4 Neuroglioblastoma Cells. [Related pubchem assays: 1829 (Project Summary), 1814 (Primary HTS)]; format: functional; details: Homo sapiens
# [3] = microbe, parasite or virus in culture; format: functional; details: Mycobacterium tuberculosis
# [4] = Luminescence Cell-Based Dose Retest to Confirm Inhibitors of Cancer Stem Cells. [Related pubchem assays (depositor defined):AID2717, AID2721]; format: functional; details: Homo sapiens
# P388/ADR = assay: cells; format: functional
# SN12K1 = assay: cells; format: functional; details: Homo sapiens
# P388 = assay: cells; format: functional
# [5] = test system: Streptococcus sp. 'group A'; assay: growth inhibition of control SK(-) GAS strain, dose response, counter-screen for streptokinase expression inhibitor project, luminescence, kanamycin, BacTiterGlo, confirmation (AID 1900); format: functional, organism-based
# Streptokinase A = target: T1, Streptokinase A (Streptococcus pyogenes serotype M1, UniProt P10520); assay: S. pyogenes streptokinase expression inhibitors, potency, dose response, plasminogen activation absorbance, OD405 (AID 1914); format: functional, Streptococcus pyogenes M1 GAS;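 note: secreted streptokinase activity via plasminogen activation per viability signal from cell pellet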
# T1 sequence (P10520 whole entry): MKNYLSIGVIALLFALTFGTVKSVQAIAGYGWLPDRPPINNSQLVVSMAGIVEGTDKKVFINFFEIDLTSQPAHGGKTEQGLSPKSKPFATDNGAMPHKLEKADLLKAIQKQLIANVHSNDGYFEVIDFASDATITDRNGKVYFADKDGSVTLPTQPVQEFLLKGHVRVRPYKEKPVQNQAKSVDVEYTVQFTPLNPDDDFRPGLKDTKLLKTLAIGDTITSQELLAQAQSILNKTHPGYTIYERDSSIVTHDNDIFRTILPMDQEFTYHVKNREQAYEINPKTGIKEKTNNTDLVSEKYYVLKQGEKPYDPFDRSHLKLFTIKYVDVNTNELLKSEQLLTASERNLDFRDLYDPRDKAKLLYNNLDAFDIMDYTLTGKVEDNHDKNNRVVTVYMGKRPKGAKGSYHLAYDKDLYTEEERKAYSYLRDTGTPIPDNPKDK
# Streptococcus = assay: Group A Streptococcus viability loss, dose response, counter-screen for streptokinase expression inhibitor project, luminescence, BacTiterGlo (AID 1915); format: functional, organism-based;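 note: potency for reduction of bacterial viability or growth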
# Protein skinhead-1 = target: T2, Protein skinhead-1 (Caenorhabditis elegans, UniProt P34707); format: functional
# T2 sequence (P34707 whole entry): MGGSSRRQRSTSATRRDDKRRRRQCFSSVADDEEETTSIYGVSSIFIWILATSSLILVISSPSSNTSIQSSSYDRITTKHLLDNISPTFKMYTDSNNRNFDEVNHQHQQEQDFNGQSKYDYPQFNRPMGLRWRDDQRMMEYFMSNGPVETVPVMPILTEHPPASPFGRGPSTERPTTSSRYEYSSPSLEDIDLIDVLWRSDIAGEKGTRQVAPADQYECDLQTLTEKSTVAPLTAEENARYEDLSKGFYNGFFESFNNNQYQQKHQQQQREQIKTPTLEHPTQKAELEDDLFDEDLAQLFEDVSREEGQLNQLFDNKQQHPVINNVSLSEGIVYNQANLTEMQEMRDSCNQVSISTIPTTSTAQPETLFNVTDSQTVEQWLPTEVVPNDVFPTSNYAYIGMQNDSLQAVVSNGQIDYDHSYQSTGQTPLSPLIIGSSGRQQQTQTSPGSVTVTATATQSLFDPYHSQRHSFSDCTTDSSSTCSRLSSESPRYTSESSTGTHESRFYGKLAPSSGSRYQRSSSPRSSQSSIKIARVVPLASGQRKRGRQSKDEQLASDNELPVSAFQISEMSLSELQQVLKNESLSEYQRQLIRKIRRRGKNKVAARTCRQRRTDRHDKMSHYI
# [6] = growth suppression of PTEN-null colon cells, dose response, cell-based, HCT116 PTEN knockout (AID 1047); format: functional;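 note: HCT116 colon tumor cells with PTEN knocked out; cells exposed to compound for 60 hours before readout; potency for loss of cell viability measured by luminescence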
# [7] = growth suppression of beta-catenin-knockout colon cells, dose response, cell-based, HCT116, human colon tumor (AID 1045); format: functional;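 note: HCT116 colon tumor cells with beta catenin knocked out; cells exposed to compound for 60 hours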
# [8] = P. falciparum Dd2 growth inhibitors, dose response, SYBR Green, cherry-picked samples (AID 1159567); format: functional, cell-based
structure (smiles),measurement,setting,value
Cc1cccn2c(O)c(C(=O)NC3CCCCC3)c(=O)nc12,EC50,[1],> 120 µM (not active)
same,EC50,[2],> 120 µM (not active)
same,EC50,H4,> 120 µM (not active)
Cc1cc(N2CCCCC2)n2ncc(-c3ccc(Cl)cc3)c2n1,CC50,[3],> 40 µM (active)
same,AC50,[4],4.92 µM (active)
COc1ccc(C2=NN(C(=O)COC(=O)c3ccc(S(C)(=O)=O)c([N+](=O)[O-])c3)C(c3ccco3)C2)cc1 (stereo unspecified),CC50,[3],9.73 µM (active)
same,AC50,[4],1.52 µM (active)
CC(=O)c1ccc(NC(=O)COC(=O)c2c3c(nc4ccccc24)/C(=C\c2cccs2)CCC3)cc1,CC50,[3],12.4 µM (active)
same,AC50,[4],3.85 µM (active)
Cn1c(NC(=O)/C=C/c2ccccc2)cc(=O)n(C)c1=O,EC50,[1],26.1 µM (active)
same,EC50,[2],14.9 µM (active)
same,EC50,H4,68.7 µM (inconclusive)
O=C(COc1ccc(Br)cc1Cl)NC1CCCCC1,EC50,[1],0.128 µM (inconclusive)
same,EC50,[2],0.174 µM (active)
CC1=C(O)C(=O)[C@@H]2O[C@@H]2C1=O,GI50,"P388/ADR; Mus musculus, P388/ADR",1.09 µM (active)
same,GI50,SN12K1,11.1 µM (inactive)
same,GI50,"P388; Mus musculus, P388",0.542 µM (active)
CC(=O)Nc1ccc(S(=O)(=O)N2CCN=C2SCc2ccc(C)cc2)cc1,EC50,[1],48.2 µM (active)
same,EC50,[2],45 µM (active)
same,EC50,H4,8.96 µM (active)
same,EC50,[5],> 150 µM (not active)
same,EC50,Streptokinase A,> 150 µM (not active)
same,EC50,Streptococcus,> 150 µM (not active)
CCOC(=O)c1c(NC(=O)CSc2nc3cc(OC)ccc3[nH]2)sc2c1CC(C)(C)NC2(C)C,CC50,[3],21.6 µM (active)
CC(C)c1nnc(NC(=O)CCC(=O)N2CCN(c3ccc(Cl)cc3)CC2)s1,CC50,[3],> 40 µM (active)
Cc1ccc(Cn2nc(C)cc2C(=O)Nc2ccccc2Cl)cc1,EC50,[1],21.3 µM (active)
same,EC50,[2],1.49 µM (active)
same,EC50,H4,33.9 µM (active)
O=[N+]([O-])c1ccc2c(c1)nc1n2CCN(C2CCCCC2)C1,EC50,[1],80.8 µM (active)
same,EC50,[2],17.6 µM (active)
CCC(C(=O)Nc1cccc(S(=O)(=O)N(C)c2ccccc2)c1)c1ccccc1 (stereo unspecified),IC50,Protein skinhead-1,> 100 µM (inactive)
N#CC(OC1OC(COC2OC(CO)C(O)C(O)C2O)C(O)C(O)C1O)c1ccccc1 (stereo unspecified),GI50,"P388/ADR; Mus musculus, P388/ADR",> 225 µM (inactive)
same,GI50,SN12K1,> 225 µM (inactive)
same,GI50,"P388; Mus musculus, P388",> 225 µM (inactive)
COc1ccc2o/c(=N/c3cc(F)ccc3F)c(C(N)=O)cc2c1,EC50,[1],> 120 µM (not active)
same,EC50,[2],> 120 µM (not active)
same,EC50,H4,> 120 µM (not active)
O=P1(Oc2ccc(Cl)cc2Cl)Oc2cc3ccccc3cc2O1,GI50,"P388/ADR; Mus musculus, P388/ADR",22.4 µM (inactive)
same,GI50,SN12K1,59.4 µM (inactive)
same,GI50,"P388; Mus musculus, P388",14 µM (inactive)
Cc1c2cnccc2c(C)c2c1c1ccccc1n2CCCN,GI50,"P388/ADR; Mus musculus, P388/ADR",0.157 µM (active)
same,GI50,SN12K1,0.222 µM (active)
same,GI50,"P388; Mus musculus, P388",0.0931 µM (active)
C=C1CC(OC)(C(O)C(=O)N[C@H]2OCO[C@H]3C2O[C@H](C[C@H](O)COC)C(C)(C)C3OC)O[C@H](C)[C@@H]1C (stereo partly specified),GI50,"P388/ADR; Mus musculus, P388/ADR",< 0.00773 µM (active)
same,GI50,SN12K1,< 0.00773 µM (active)
same,GI50,"P388; Mus musculus, P388",< 0.00773 µM (active)
CSCC[C@@H](NC(=O)[C@H](CC(C)C)NC(=O)C(Cc1cnc[nH]1)NC(=O)CNC(=O)[C@@H](NC(=O)[C@H](C)NC(=O)[C@H](Cc1c[nH]c2ccccc12)NC(=O)[C@H](CCC(N)=O)NC(=O)[C@@H](N)CC(N)=O)C(C)C)C(N)=O (stereo partly specified),GI50,"P388/ADR; Mus musculus, P388/ADR",> 100 µM (inactive)
same,GI50,SN12K1,> 100 µM (inactive)
same,GI50,"P388; Mus musculus, P388",> 100 µM (inactive)
NC(=O)c1csc(C2OC(CO)C(O)C2O)n1 (stereo unspecified),GI50,"P388/ADR; Mus musculus, P388/ADR",1.79 µM (inactive)
same,GI50,SN12K1,77.8 µM (inactive)
same,GI50,"P388; Mus musculus, P388",1.86 µM (inactive)
Nc1ncn(C2OC(CO)C(O)C2O)c(=O)n1 (stereo unspecified),GI50,P388/ADR,0.489 µM (active)
same,GI50,"P388/ADR; Mus musculus, P388/ADR",0.393 µM (active)
same,GI50,P388,0.452 µM (active)
same,GI50,"P388; Mus musculus, P388",0.348 µM (active)
Cc1ccc(Nc2nc(/N=C/N(C)C)n[nH]2)cc1C,EC50,[1],> 120 µM (not active)
same,EC50,[2],> 120 µM (not active)
same,EC50,H4,28.2 µM (active)
FCCCOc1ccc(/C=N/OCc2ccc(Cl)cc2)cc1,IC50,Protein skinhead-1,> 100 µM (inactive)
CCOC(=O)c1ccc(-c2ccc(/C=N/NC(=O)CN(c3ccccc3Cl)S(C)(=O)=O)o2)cc1,EC50,[6],29.4 µM (active)
same,EC50,[1],28.6 µM (active)
same,EC50,[2],14.3 µM (active)
same,EC50,H4,33.3 µM (active)
same,EC50,[7],37.6 µM (active)
C#CCn1/c(=N/C(=O)c2cc(Cl)sc2Cl)sc2cc(S(N)(=O)=O)ccc21,CC50,[3],> 40 µM (active)
same,EC50,[5],14 µM (active)
same,EC50,Streptokinase A,> 150 µM (not active)
same,EC50,Streptococcus,> 150 µM (not active)
O=C(c1cccc(F)c1)N1CC[C@H]2[C@H](CO)Nc3ccc(C#Cc4cccc(F)c4)cc3[C@H]21,AC50,[8],4.2 µM (active)
CCCC(=O)N1CC2(C1)CN(Cc1ccccc1F)[C@H](CO)c1c2c2ccc(OC)cc2n1C,AC50,[8],6.14 µM (active)
N#C[C@@H]1[C@H](c2ccccc2C2=CCCCC2)[C@@H](CO)N1S(=O)(=O)c1ccccc1,AC50,[8],15 µM (active)
C/C=C/c1ccc([C@@H]2[C@H](CO)N(CC3CCCC3)C23CN(C(=O)CC2CC2)C3)cc1,AC50,[8],5.78 µM (active)
CCC(=O)Nc1ccc2c(c1)C(=O)N(C)C[C@H](OC)[C@H](C)CN(Cc1cccc(F)c1)[C@@H](C)CO2,AC50,[8],11.3 µM (active)
CC1(C)CC(=O)c2sc(N3CCCCC3)nc2C1,EC50,[1],68.7 µM (active)
same,EC50,[2],8.85 µM (active)
same,EC50,H4,74 µM (active)
Cc1cc(C)n(CC(O)COc2ccc3ccccc3c2)n1 (stereo unspecified),EC50,[1],16.5 µM (active)
same,EC50,[2],16.4 µM (active)
same,EC50,H4,31.3 µM (active)
Cc1c(-c2ccc(-c3ccccc3F)cc2)nc2ccc(F)cc2c1C(=O)O [BREQUINAR SODIUM],GI50,"P388/ADR; Mus musculus, P388/ADR",0.197 µM (active)
same,GI50,SN12K1,0.0902 µM (active)
same,GI50,"P388; Mus musculus, P388",0.359 µM (active)
CC[C@](C)(O)C(=O)O[C@H]1C(=O)O[C@@H]2C[C@H]3C(C)=CC(=O)[C@@H](O)[C@]3(C)[C@H]3[C@@]4(O)OC[C@]32[C@@H]1[C@@H](C)[C@H]4O [GLAUCARUBINONE],GI50,"P388/ADR; Mus musculus, P388/ADR",0.664 µM (active)
same,GI50,SN12K1,0.05 µM (active)
same,GI50,"P388; Mus musculus, P388",0.0676 µM (active)
